Experimental data as given in the NIST ThermoML archive (doi:10.1021/acs.jced.5b00950).
± gives the expanded uncertainty stated by the source.

Columns and labels:
[1] = 298.2 K; 101.33 kPa; Liquid; Vibrating tube method
[2] = refractive index (Na D-line) (dimensionless); conditions: 298.2 K; 101.33 kPa; Liquid; Standard Abbe refractometry

| mass density [1] [kg/m3] | refractive index [2] | Compound |
| --- | --- | --- |
| 999.9 ± 2 | 1.3324 ± 0.002 | O [water] |
| 952.8 ± 2 | 1.3964 ± 0.002 | CCCC(=O)O [butanoic acid] |
| 1073 ± 2 | 1.5012 ± 0.002 | CC(=O)Oc1ccccc1 [phenyl ethanoate] |
